ChEMBL document CHEMBL1909046, “DrugMatrix in vitro pharmacology data”

Key:
D(4) dopamine receptor = biological target: T1, D(4) dopamine receptor (Homo sapiens, UniProt P21917); assay: DRUGMATRIX: Dopamine D4.2 radioligand binding (ligand: [3H] Spiperone); format: cell membranes, CHO-K1, Membrane; settings: cho-k1; Not Active = under 50% inhibition at 10 µM
T1 sequence (P21917 whole entry): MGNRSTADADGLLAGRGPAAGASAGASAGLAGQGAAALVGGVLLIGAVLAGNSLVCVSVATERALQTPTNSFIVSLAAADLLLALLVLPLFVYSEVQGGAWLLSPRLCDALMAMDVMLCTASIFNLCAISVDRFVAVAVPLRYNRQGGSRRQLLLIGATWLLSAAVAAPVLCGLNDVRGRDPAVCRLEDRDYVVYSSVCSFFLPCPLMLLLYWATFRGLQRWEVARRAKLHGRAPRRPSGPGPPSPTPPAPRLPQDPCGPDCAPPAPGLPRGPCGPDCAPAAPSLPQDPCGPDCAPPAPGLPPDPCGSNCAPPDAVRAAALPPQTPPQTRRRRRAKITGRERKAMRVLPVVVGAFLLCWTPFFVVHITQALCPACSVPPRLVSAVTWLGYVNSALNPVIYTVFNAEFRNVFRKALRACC

[1] = DRUGMATRIX: Purinergic P2X radioligand binding (ligand: [3H] alpha, beta-Methylene-ATP); format: cell membranes, Oryctolagus cuniculus, New Zealand albino, Urinary bladder, Membrane; settings: Not Active = under 50% inhibition at 10 µM
[2] = DRUGMATRIX: GABAA, Chloride Channel, TBOB radioligand binding (ligand: [3H] TBOB); format: cell membranes, Rattus norvegicus, Wistar, Cerebral cortex, Membrane; settings: Not Active = under 50% inhibition at 10 µM
[3] = biological target: C-C chemokine receptor type 5 (Homo sapiens, UniProt P51681); format: cell membranes, Membrane; settings: hek293; also: in other assays of this panel Not Active means under 50% inhibition at 10 µM
D(1A) dopamine receptor = D(1A) dopamine receptor (Homo sapiens, UniProt P21728); assay: DRUGMATRIX: Dopamine D1 radioligand binding (ligand: [3H] SCH-23390); format: cell membranes, CHO, Membrane; settings: cho; Not Active = under 50% inhibition at 10 µM
[4] = biological target: Beta-3 adrenergic receptor (Homo sapiens, UniProt P13945); assay: DRUGMATRIX: Adrenergic beta3 radioligand binding (ligand: [125I] Cyanopindolol); format: cell membranes, HEK293, Membrane; settings: Not Active = under 50% inhibition at 10 µM
[5] = DRUGMATRIX: ATPase, Na+/K+ enzyme inhibition (substrate: ATP); format: tissue-based, Sus scrofa, Heart; settings: Not Active = under 50% inhibition at 10 µM

Beta-3 adrenergic receptor, sequence (P13945 whole entry): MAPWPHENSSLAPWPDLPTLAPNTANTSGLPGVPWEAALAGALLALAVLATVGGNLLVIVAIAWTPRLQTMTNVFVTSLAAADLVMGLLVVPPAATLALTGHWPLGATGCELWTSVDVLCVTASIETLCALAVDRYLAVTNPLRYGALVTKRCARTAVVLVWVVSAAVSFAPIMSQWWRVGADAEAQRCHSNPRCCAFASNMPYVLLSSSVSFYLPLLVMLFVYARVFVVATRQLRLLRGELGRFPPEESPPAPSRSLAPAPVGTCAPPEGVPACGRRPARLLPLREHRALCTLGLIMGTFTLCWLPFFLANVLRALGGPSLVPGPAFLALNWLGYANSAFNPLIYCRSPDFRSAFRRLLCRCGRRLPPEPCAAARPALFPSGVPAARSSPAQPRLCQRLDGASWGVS
C-C chemokine receptor type 5, sequence (P51681 whole entry): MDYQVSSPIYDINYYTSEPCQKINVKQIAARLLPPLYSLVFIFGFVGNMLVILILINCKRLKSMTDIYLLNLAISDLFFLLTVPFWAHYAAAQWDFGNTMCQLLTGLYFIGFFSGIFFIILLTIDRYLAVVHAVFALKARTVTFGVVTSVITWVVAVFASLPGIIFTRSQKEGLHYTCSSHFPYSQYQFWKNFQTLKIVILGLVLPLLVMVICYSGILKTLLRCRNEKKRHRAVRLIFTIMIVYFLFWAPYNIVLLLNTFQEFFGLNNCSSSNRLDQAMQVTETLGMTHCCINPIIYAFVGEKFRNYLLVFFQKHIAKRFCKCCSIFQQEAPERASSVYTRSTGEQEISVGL
D(1A) dopamine receptor, sequence (P21728 whole entry): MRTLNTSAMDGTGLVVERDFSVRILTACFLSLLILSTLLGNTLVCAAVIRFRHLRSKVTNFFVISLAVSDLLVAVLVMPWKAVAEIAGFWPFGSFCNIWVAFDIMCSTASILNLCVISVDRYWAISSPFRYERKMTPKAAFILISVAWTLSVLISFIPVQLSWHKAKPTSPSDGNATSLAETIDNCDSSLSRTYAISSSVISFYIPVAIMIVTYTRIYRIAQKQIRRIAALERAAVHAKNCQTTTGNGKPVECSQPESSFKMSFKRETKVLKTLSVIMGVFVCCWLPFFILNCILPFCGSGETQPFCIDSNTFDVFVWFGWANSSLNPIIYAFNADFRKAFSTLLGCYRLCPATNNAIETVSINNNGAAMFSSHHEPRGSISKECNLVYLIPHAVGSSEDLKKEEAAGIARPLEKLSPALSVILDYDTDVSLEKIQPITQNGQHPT

In the case of `C=C(CC)C(=O)c1ccc(OCC(=O)O)c(Cl)c1Cl` [ETHACRYNIC ACID], the IC50 (D(4) dopamine receptor) is reported as “Not Active”, the IC50 [1] is reported as “Not Active” and the Ki [1] is reported as “Not Active”. For the same molecule, the IC50 [2] was “Not Active”, the Ki [2] was “Not Active” and the IC50 [3] was “Not Active”. The IC50 (D(1A) dopamine receptor) was “Not Active”, the IC50 ([4]; hek293) was “Not Active” and the IC50 [5] was “Not Active”. The Ki [5] was “Not Active”.
For `CC(C(=O)O)c1ccc(-c2ccccc2)c(F)c1` (centres undefined) [FLURBIPROFEN], the IC50 (D(4) dopamine receptor) was “Not Active”, the IC50 [1] was “Not Active” and the Ki [1] was “Not Active”. For the same molecule, the IC50 [2] was “Not Active”, the Ki [2] was “Not Active” and the IC50 [3] was “Not Active”. The IC50 (D(1A) dopamine receptor) was “Not Active”, the IC50 ([4]; hek293) was “Not Active” and the IC50 [5] was “Not Active”. For the same molecule, the Ki [5] was “Not Active”.
In the case of `COc1ccccc1OCC(O)COC(N)=O` (centres undefined) [METHOCARBAMOL], the IC50 (D(4) dopamine receptor) is reported as “Not Active”, the IC50 [1] is reported as “Not Active” and the Ki [1] is reported as “Not Active”. For the same molecule, the IC50 [2] was “Not Active”, the Ki [2] was “Not Active” and the IC50 [3] was “Not Active”. For the same molecule, the IC50 (D(1A) dopamine receptor) was “Not Active”, the IC50 ([4]; hek293) was “Not Active” and the IC50 [5] was “Not Active”. The Ki [5] was “Not Active”.
For `CC(C(=O)O)c1ccc(CC2CCCC2=O)cc1` (centres undefined) [LOXOPROFEN], the IC50 (D(4) dopamine receptor) was “Not Active”, the IC50 [1] was “Not Active” and the Ki [1] was “Not Active”. For the same molecule, the IC50 [2] was “Not Active”, the Ki [2] was “Not Active” and the IC50 [3] was “Not Active”. For the same molecule, the IC50 (D(1A) dopamine receptor) was “Not Active”, the IC50 ([4]; hek293) was “Not Active” and the IC50 [5] was “Not Active”. For the same molecule, the Ki [5] was “Not Active”.
For `CCCCC1C(=O)N(c2ccccc2)N(c2ccccc2)C1=O` [PHENYLBUTAZONE], the IC50 (D(4) dopamine receptor) was “Not Active”, the IC50 [1] was “Not Active” and the Ki [1] was “Not Active”. For the same molecule, the IC50 [2] was “Not Active”, the Ki [2] was “Not Active” and the IC50 [3] was “Not Active”. For the same molecule, the IC50 (D(1A) dopamine receptor) was “Not Active”, the IC50 ([4]; hek293) was “Not Active” and the IC50 [5] was “Not Active”. The Ki [5] was “Not Active”.
With `CCN[C@@H](C)Cc1cccc(C(F)(F)F)c1` [DEXFENFLURAMINE] the IC50 (D(4) dopamine receptor) was “Not Active”, the IC50 [1] was “Not Active” and the Ki [1] was “Not Active”. The IC50 [2] was “Not Active”, the Ki [2] was “Not Active” and the IC50 [3] was “Not Active”. The IC50 (D(1A) dopamine receptor) was “Not Active”, the IC50 ([4]; hek293) was “Not Active” and the IC50 [5] was “Not Active”. For the same molecule, the Ki [5] was “Not Active”.
For `COc1ccccc1OCC(O)CO` (centres undefined) [GUAIFENESIN], the IC50 (D(4) dopamine receptor) was “Not Active”, the IC50 [1] was “Not Active” and the Ki [1] was “Not Active”. The IC50 [2] was “Not Active”, the Ki [2] was “Not Active” and the IC50 [3] was “Not Active”. The IC50 (D(1A) dopamine receptor) was “Not Active”, the IC50 ([4]; hek293) was “Not Active” and the IC50 [5] was “Not Active”. For the same molecule, the Ki [5] was “Not Active”.
For `CCC(=O)O[C@H]1[C@H](O[C@@H]2[C@@H](C)[C@H](O[C@H]3C[C@@](C)(OC)[C@@H](O)[C@H](C)O3)[C@@H](C)C(=O)O[C@H](CC)[C@@](C)(O)[C@H](O)[C@@H](C)C(=O)[C@H](C)C[C@@]2(C)O)O[C@H](C)C[C@@H]1N(C)C` [ERYTHROMYCIN PROPIONATE], the IC50 (D(4) dopamine receptor) was “Not Active”, the IC50 [1] was “Not Active” and the Ki [1] was “Not Active”. The IC50 [2] was “Not Active”, the Ki [2] was “Not Active” and the IC50 [3] was “Not Active”. For the same molecule, the IC50 (D(1A) dopamine receptor) was “Not Active”, the IC50 ([4]; hek293) was “Not Active” and the IC50 [5] was “Not Active”. For the same molecule, the Ki [5] was “Not Active”.
With `C=C1/C(=C\C=C2/CCC[C@]3(C)[C@@H]([C@H](C)CCCC(C)C)CC[C@@H]23)C[C@@H](O)C[C@@H]1O` [ALFACALCIDOL] the IC50 (D(4) dopamine receptor) was “Not Active”, the IC50 [1] was “Not Active” and the Ki [1] was “Not Active”. The IC50 [2] was “Not Active”, the Ki [2] was “Not Active” and the IC50 [3] was “Not Active”. The IC50 (D(1A) dopamine receptor) was “Not Active”, the IC50 ([4]; hek293) was “Not Active” and the IC50 [5] was “Not Active”. For the same molecule, the Ki [5] was “Not Active”.
In the case of `CS(=O)(=O)OCCCCOS(C)(=O)=O` [BUSULFAN], the IC50 (D(4) dopamine receptor) is reported as “Not Active”, the IC50 [1] is reported as “Not Active” and the Ki [1] is reported as “Not Active”. The IC50 [2] was “Not Active”, the Ki [2] was “Not Active” and the IC50 [3] was “Not Active”. The IC50 (D(1A) dopamine receptor) was “Not Active”, the IC50 ([4]; hek293) was “Not Active” and the IC50 [5] was “Not Active”. The Ki [5] was “Not Active”.
With `CC(C)(C)c1ccc(S(=O)(=O)/C=C/C#N)cc1` [BAY-11-7085] the IC50 (D(4) dopamine receptor) was “Not Active”, the IC50 [1] was “Not Active” and the Ki [1] was “Not Active”. For the same molecule, the IC50 [2] was “Not Active”, the Ki [2] was “Not Active” and the IC50 [3] was “Not Active”. For the same molecule, the IC50 ([4]; hek293) was “Not Active”, the IC50 [5] was “Not Active” and the Ki [5] was “Not Active”.
With `C#C[C@]1(O)CC[C@H]2[C@@H]3CCC4=Cc5oncc5C[C@]4(C)[C@H]3CC[C@@]21C` [DANAZOL] the IC50 (D(4) dopamine receptor) was “Not Active”, the IC50 [1] was “Not Active” and the Ki [1] was “Not Active”. For the same molecule, the IC50 [2] was “Not Active”, the Ki [2] was “Not Active” and the IC50 [3] was “Not Active”. The IC50 ([4]; read-out: IC50) was 17 µM, the Ki ([4]; read-out: Ki) was 12.8 µM and the IC50 [5] was “Not Active”. The Ki [5] was “Not Active”.
